According to patent publication US10544106B2, “Certain chemical entities, compositions, and methods” (NeuPharma, Inc., priority 2016, dated 2020):

Target: BTK (Homo sapiens (Human), UniProt Q06187)
Assay: Z'-LYTE kinase inhibition assay against BTK
Assay type: biochemical
Conditions: for inhibition at 0.1 µM: compound at 100 nM, ATP concentration at Km; for IC50: series of concentrations, GraphPad Prism 5
Method in brief: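 Z′-LYTE FRET readout: 1.04-10.4 ng BTK with 2 μM Tyr 01 peptide, ATP at Km, in 50 mM HEPES pH 7.5, 10 mM MgCl2, 1 mM EGTA, 0.01% BRIJ-35, 1% DMSO. 60 min kinase reaction at room temperature, then 60 min development; IC50 from 10-point, 3-fold titrations.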

Sequence of BTK (Q06187 whole entry): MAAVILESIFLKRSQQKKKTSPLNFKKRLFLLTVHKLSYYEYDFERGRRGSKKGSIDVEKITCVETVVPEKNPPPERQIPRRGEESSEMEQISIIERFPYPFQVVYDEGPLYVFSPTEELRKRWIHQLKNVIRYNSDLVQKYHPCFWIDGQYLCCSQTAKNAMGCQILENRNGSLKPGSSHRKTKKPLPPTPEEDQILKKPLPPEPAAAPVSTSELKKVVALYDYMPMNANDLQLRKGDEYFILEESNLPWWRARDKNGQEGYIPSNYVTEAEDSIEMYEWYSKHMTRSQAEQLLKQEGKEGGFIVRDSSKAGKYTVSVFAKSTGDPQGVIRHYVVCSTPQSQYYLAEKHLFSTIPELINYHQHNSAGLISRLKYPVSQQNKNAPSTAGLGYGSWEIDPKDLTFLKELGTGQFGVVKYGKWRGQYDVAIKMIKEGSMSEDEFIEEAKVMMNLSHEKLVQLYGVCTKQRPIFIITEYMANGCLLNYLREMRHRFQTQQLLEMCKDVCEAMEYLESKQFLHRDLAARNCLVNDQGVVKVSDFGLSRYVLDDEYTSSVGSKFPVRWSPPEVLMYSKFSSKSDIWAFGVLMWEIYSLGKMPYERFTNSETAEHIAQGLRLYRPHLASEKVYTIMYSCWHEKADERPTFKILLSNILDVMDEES

SMILES | inhibition at 0.1 µM | IC50
C=CC(=O)Nc1cccc(-c2cc(-c3ccc(C(=O)Nc4ccccn4)c(OC)c3)cc3cncnc23)c1 [C141, 4-(8-(3-acrylamidophenyl)quinazolin-6-yl)-2-methoxy-N-(pyridin-2-yl)benzamide] | < 50% | 
C=CC(=O)N1CCC(c2cc(-c3ccc(C(=O)Nc4ccc(C(F)(F)F)cn4)cc3)cc3cncnc23)C1 (centres unmarked) [C142, 4-(8-(1-acryloylpyrrolidin-3-yl)quinazolin-6-yl)-N-(5-(trifluoromethyl)pyridin-2-yl)benzamide] | < 50% | 
C=CC(=O)N1CCC(c2cc(-c3ccc(Oc4cc(C(F)(F)F)ccn4)cc3)n3cnccc23)C1 (centres unmarked) [C143, 1-(3-(7-(4-((4-(trifluoromethyl)pyridin-2-yl)oxy)phenyl)pyrrolo[1,2-c]pyrimidin-5-yl)pyrrolidin-1-yl)prop-2-en-1-one] | < 50% | 
C=CC(=O)N1CCC(c2cc(-c3ccc(Oc4ccccn4)cc3F)cc3cnc(N)nc23)C1 (centres unmarked) [C144, 1-(3-(2-amino-6-(2-fluoro-4-(pyridin-2-yloxy)phenyl)quinazolin-8-yl)pyrrolidin-1-yl)prop-2-en-1-one] | < 50% | 
C=CC(=O)Nc1cccc(-c2cc(-c3ccc(C(=O)Nc4cc(C(F)(F)F)ccn4)c(OC)c3)cc3cncnc23)c1 [C145, 4-(8-(3-acrylamidophenyl)quinazolin-6-yl)-2-methoxy-N-(4-(trifluoromethyl)pyridin-2-yl)benzamide] | < 50% | 
C=CC(=O)N1CCC(c2cc(-c3ccc(Oc4ccccn4)c(OC)c3)cc3cncnc23)C1 (centres unmarked) [C146, 1-(3-(6-(3-methoxy-4-(pyridin-2-yloxy)phenyl)quinazolin-8-yl)pyrrolidin-1-yl)prop-2-en-1-one] | < 50% | 
C=CC(=O)N1CCC(c2cc(-c3ccc(C(=O)Nc4ccnnc4)cc3)cc3cncnc23)C1 (centres unmarked) [C147, 4-(8-(1-acryloylpyrrolidin-3-yl)quinazolin-6-yl)-N-(pyridazin-4-yl)benzamide] | < 50% | 
C=CC(=O)N1CCC(c2cc(-c3ccc(C(=O)Nc4cc(OC)ccn4)c(F)c3)n3cnccc23)C1 (centres unmarked) [C148, 4-(5-(1-acryloylpyrrolidin-3-yl)pyrrolo[1,2-c]pyrimidin-7-yl)-2-fluoro-N-(4-methoxypyridin-2-yl)benzamide] | < 50% | 
C=CC(=O)N1CCC(c2cc(-c3ccc(C(=O)Nc4cc(C5CC5)ccn4)cc3F)n3cnccc23)C1 (centres unmarked) [C149, 4-(5-(1-acryloylpyrrolidin-3-yl)pyrrolo[1,2-c]pyrimidin-7-yl)-N-(4-cyclopropylpyridin-2-yl)-3-fluorobenzamide] | < 50% | 
C=CC(=O)N1CCC(c2cc(-c3ccc(C(=O)Nc4cc(OC)ccn4)cc3F)n3cnccc23)C1 (centres unmarked) [C150, 4-(5-(1-acryloylpyrrolidin-3-yl)pyrrolo[1,2-c]pyrimidin-7-yl)-3-fluoro-N-(4-methoxypyridin-2-yl)benzamide] | < 50% | 
C=CC(=O)N1CCC(c2cc(-c3ccc(C(=O)Nc4cc(C#N)ccn4)cc3F)n3cnccc23)C1 (centres unmarked) [C151, 4-(5-(1-acryloylpyrrolidin-3-yl)pyrrolo[1,2-c]pyrimidin-7-yl)-N-(4-cyanopyridin-2-yl)-3-fluorobenzamide] | < 50% | 
C=CC(=O)N1CCC(c2cc(-c3ccc(C(=O)Nc4cc(C(F)(F)F)ccn4)c(F)c3)n3cnccc23)C1 (centres unmarked) [C152, 4-(5-(1-acryloylpyrrolidin-3-yl)pyrrolo[1,2-c]pyrimidin-7-yl)-2-fluoro-N-(4-(trifluoro-methyl)pyridin-2-yl)benzamide] | < 50% | 
C=CC(=O)Nc1cccc(-c2cc(-c3ccc(C(=O)Nc4cc(C5CC5)ccn4)cc3F)cc3cncnc23)c1 [C153, 4-(8-(3-acrylamidophenyl)quinazolin-6-yl)-N-(4-cyclopropylpyridin-2-yl)-3-fluorobenzamide] | > 50% | < 100 nM
C=CC(=O)Nc1cccc(-c2cc(-c3ccc(C(=O)Nc4cc(C#N)ccn4)cc3F)cc3cncnc23)c1 [C154, 4-(8-(3-acrylamidophenyl)quinazolin-6-yl)-N-(4-cyanopyridin-2-yl)-3-fluorobenzamide] | > 50% | 
C=CC(=O)N1CCC(c2cc(-c3ccc(C(=O)Nc4ccncc4)cc3)cc3cncnc23)C1 (centres unmarked) [C155, 4-(8-(1-acryloylpyrrolidin-3-yl)quinazolin-6-yl)-N-(pyridin-4-yl)benzamide] | < 50% | 
C=CC(=O)Nc1cccc(-c2cc(-c3ccc(C(=O)Nc4cc(C#N)ccn4)c(OC)c3)cc3cncnc23)c1 [C156, 4-(8-(3-acrylamidophenyl)quinazolin-6-yl)-N-(4-cyanopyridin-2-yl)-2-methoxybenzamide] | < 50% | 
C=CC(=O)Nc1cccc(-c2cc(-c3ccc(Oc4ccccn4)cc3F)cc3cnc(N)nc23)c1 [C157, N-(3-(2-amino-6-(2-fluoro-4-(pyridin-2-yloxy)phenyl)quinazolin-8-yl)phenyl)acrylamide] | > 50% | < 100 nM

SMILES | inhibition at 0.1 µM | IC50
C=CC(=O)Nc1cccc(-c2cc(-c3ccc(Oc4ccccn4)c(F)c3)cc3cnc(N)nc23)c1 [C158, N-(3-(2-amino-6-(3-fluoro-4-(pyridin-2-yloxy)phenyl)quinazolin-8-yl)phenyl)acrylamide] | > 50% | < 100 nM
C=CC(=O)N1CCC(c2cc(-c3ccc(Oc4ccccn4)cc3F)n3cnccc23)C1 (centres unmarked) [C159, 1-(3-(7-(2-fluoro-4-(pyridin-2-yloxy)phenyl)pyrrolo[1,2-c]pyrimidin-5-yl)pyrrolidin-1-yl)prop-2-en-1-one] | < 50% | 
C=CC(=O)N1CCC(c2cc(-c3ccc(Oc4ccccn4)c(F)c3)cc3cncnc23)C1 (centres unmarked) [C160, 1-(3-(6-(3-fluoro-4-(pyridin-2-yloxy)phenyl)quinazolin-8-yl)pyrrolidin-1-yl)prop-2-en-1-one] | > 50% | 
C=CC(=O)N1CCC(c2cc(-c3ccc(C(=O)Nc4cc(C#N)ccn4)cc3)n3cnccc23)C1 (centres unmarked) [C161, 4-(5-(1-acryloylpyrrolidin-3-yl)pyrrolo[1,2-c]pyrimidin-7-yl)-N-(4-cyanopyridin-2-yl)benzamide] | > 50% | < 100 nM
C=CC(=O)N1CCC(c2cc(-c3ccc(C(=O)Nc4cc(OC)ccn4)cc3)n3cnccc23)C1 (centres unmarked) [C162, 4-(5-(1-acryloylpyrrolidin-3-yl)pyrrolo[1,2-c]pyrimidin-7-yl)-N-(4-methoxypyridin-2-yl)benzamide] | < 50% | 
C=CC(=O)N1CCC(c2cc(-c3ccc(C(=O)Nc4cc(C5CC5)ccn4)cc3)n3cnccc23)C1 (centres unmarked) [C164, 4-(5-(1-acryloylpyrrolidin-3-yl)pyrrolo[1,2-c]pyrimidin-7-yl)-N-(4-cyclopropylpyridin-2-yl)benzamide] | > 50% | 
C=CC(=O)N1CCC(c2cc(-c3ccc(C(=O)Nc4cc(C5CC5)ccn4)c(F)c3)n3cnccc23)C1 (centres unmarked) [C165, 4-(5-(1-acryloylpyrrolidin-3-yl)pyrrolo[1,2-c]pyrimidin-7-yl)-N-(4-cyclopropylpyridin-2-yl)-2-fluorobenzamide] | < 50% | 
C=CC(=O)Nc1cccc(-c2cc(-c3ccc(Oc4ccccn4)cc3OC)cc3cnc(N)nc23)c1 [C166, N-(3-(2-amino-6-(2-methoxy-4-(pyridin-2-yloxy)phenyl)quinazolin-8-yl)phenyl)acrylamide] | > 50% | < 100 nM
C=CC(=O)N1CCC(c2cc(-c3ccc(Oc4ccccn4)c(OC)c3)n3cnccc23)C1 (centres unmarked) [C167, 1-(3-(7-(3-methoxy-4-(pyridin-2-yloxy)phenyl)pyrrolo[1,2-c]pyrimidin-5-yl)pyrrolidin-1-yl)prop-2-en-1-one] | < 50% | 
C=CC(=O)N1CCC(c2cc(-c3ccc(Oc4ccccn4)cc3OC)cc3cnc(N)nc23)C1 (centres unmarked) [C168, 1-(3-(2-amino-6-(2-methoxy-4-(pyridin-2-yloxy)phenyl)quinazolin-8-yl)pyrrolidin-1-yl)prop-2-en-1-one] | < 50% | 
C=CC(=O)N1CCC(c2cc(-c3ccc(Oc4ccccn4)cc3OC)n3cnccc23)C1 (centres unmarked) [C169, 1-(3-(7-(2-methoxy-4-(pyridin-2-yloxy)phenyl)pyrrolo[1,2-c]pyrimidin-5-yl)pyrrolidin-1-yl)prop-2-en-1-one] | < 50% | 
C=CC(=O)Nc1cccc(-c2cc(-c3ccc(C(=O)Nc4ccccn4)cc3)c(N)c3cncnc23)c1 [C170, 4-(8-(3-acrylamidophenyl)-5-aminoquinazolin-6-yl)-N-(pyridin-2-yl)benzamide] | < 50% | 
C=CC(=O)Nc1cccc(-c2cc(-c3ccc(C(=O)Nc4cc(C5CC5)ccn4)cc3)c(N)c3cncnc23)c1 [C171, 4-(8-(3-acrylamidophenyl)-5-aminoquinazolin-6-yl)-N-(4-cyclopropylpyridin-2-yl)benzamide] | > 50% | < 100 nM
C=CC(=O)N1CCC(c2cc(-c3ccc(C(=O)Nc4cc(C#N)ccn4)c(F)c3)n3cnccc23)C1 (centres unmarked) [C172, 4-(5-(1-acryloylpyrrolidin-3-yl)pyrrolo[1,2-c]pyrimidin-7-yl)-N-(4-cyanopyridin-2-yl)-2-fluorobenzamide] | < 50% | 
C=CC(=O)Nc1cccc(-c2cc(-c3ccc(Oc4ccccn4)cc3F)c(N)c3cncnc23)c1 [C173, N-(3-(5-amino-6-(2-fluoro-4-(pyridin-2-yloxy)phenyl)quinazolin-8-yl)phenyl)acrylamide] | < 50% | 
C=CC(=O)N1CCC(c2cc(-c3ccc(Oc4ccccn4)cc3F)c(N)c3cncnc23)C1 (centres unmarked) [C174, 1-(3-(5-amino-6-(2-fluoro-4-(pyridin-2-yloxy)phenyl)quinazolin-8-yl)pyrrolidin-1-yl)prop-2-en-1-one] | < 50% | 
C=CC(=O)Nc1cccc(-c2cc(-c3ccc(Oc4cc(C(F)(F)F)ccn4)cc3)cc3cncnc23)c1 [C175, N-(3-(6-(4-((4-(trifluoromethyl)pyridin-2-yl)oxy)phenyl)quinazolin-8-yl)phenyl)acrylamide] | > 50% | < 100 nM
